US11524966B1 (Valo Early Discovery, Inc., priority 2017, dated 2022)

The compounds below were run against T1, USP25 (USP25-His6, Boston Biochem E-546) (Homo sapiens, UniProt Q9UHP3) (assay: Ubiquitin-Rhodamine 110 Assay for USP25 Activity, Example A-2). Conditions: Ub-Rh110 assay, Example A-2; read-out: USP25 A-2 IC50 range.
T1 construct: His6; purchased Boston Biochem E-546
T1 sequence (Q9UHP3 1-1055): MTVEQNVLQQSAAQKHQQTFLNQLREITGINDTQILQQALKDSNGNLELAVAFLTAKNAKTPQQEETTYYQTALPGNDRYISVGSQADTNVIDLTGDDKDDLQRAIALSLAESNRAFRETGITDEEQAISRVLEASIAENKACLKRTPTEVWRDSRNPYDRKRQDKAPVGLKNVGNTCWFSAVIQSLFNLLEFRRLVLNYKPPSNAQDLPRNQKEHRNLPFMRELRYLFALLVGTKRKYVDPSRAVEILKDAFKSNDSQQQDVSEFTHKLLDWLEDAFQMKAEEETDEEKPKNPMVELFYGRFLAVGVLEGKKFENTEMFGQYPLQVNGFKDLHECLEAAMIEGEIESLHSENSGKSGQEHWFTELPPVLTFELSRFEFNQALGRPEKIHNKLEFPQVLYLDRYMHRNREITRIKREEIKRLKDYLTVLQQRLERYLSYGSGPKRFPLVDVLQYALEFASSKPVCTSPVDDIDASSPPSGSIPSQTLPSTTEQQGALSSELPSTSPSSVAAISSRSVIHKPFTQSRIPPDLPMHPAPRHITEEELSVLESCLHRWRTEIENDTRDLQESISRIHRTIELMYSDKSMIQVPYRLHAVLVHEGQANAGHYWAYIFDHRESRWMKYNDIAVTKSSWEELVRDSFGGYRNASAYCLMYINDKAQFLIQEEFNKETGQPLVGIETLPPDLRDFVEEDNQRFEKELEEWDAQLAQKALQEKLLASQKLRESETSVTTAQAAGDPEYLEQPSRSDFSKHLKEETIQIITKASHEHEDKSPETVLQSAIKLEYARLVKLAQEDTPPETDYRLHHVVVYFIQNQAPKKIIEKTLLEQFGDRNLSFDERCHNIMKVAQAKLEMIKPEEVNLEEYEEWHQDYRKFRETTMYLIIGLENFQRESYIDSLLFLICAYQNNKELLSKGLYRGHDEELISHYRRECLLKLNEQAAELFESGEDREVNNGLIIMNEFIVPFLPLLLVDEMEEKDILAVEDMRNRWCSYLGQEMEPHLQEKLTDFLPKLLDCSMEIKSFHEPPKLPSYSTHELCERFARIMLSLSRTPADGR
Type: biochemical
Procedure, shortened: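 USP25-His6 (75 pM) was preincubated with compound (10-point, 3-fold series, 25 μM to 1.3 nM) for 30 min in 20 mM Tris-HCl pH 8.0, 3 mM BME, 0.03% BGG, 0.01% Triton X-100. Ub-Rh110 (25 nM, <<Km) was then added for 45 min at room temperature, citric acid-stopped, and fluorescence read at 485/535 nm.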

**Q.** With Cc1ccc2c(N)c(C(=O)N[C@H]3COc4cc(N5CCN[C@@H](C)[C@H]5C)ccc4C3)sc2n1 (single isomer, unassigned) [Example 1-7] as the compound, how does the IC50 read?
**A.** 0.001 to 0.05 µM

Same assay, conditions: Ubiquitin-Rhodamine 110 assay, format Example A-2; read-out: USP25 A-2 IC50 range

**Q.** With Cc1nc2sc(C(=O)N[C@H]3CCc4cc(N5CCNCC5)ccc4C3)c(N)c2s1 (single isomer, unassigned) [Example 11-33] as the compound, how does the IC50 read?
**A.** > 2 µM

**Q.** Cc1nc2sc(C(=O)N[C@@H]3CCc4cc(N5CC6CCC(C5)N6)ccc4C3)c(N)c2s1 (single isomer, unassigned) [Example 12-2] was tested. Which IC50 did it give?
**A.** 0.2 to 2 µM

**Q.** How did the IC50 turn out when Cc1ccc2c(N)c(C(=O)N[C@@H]3CCc4c(ccc(N5CC6CCC(C5)N6)c4C#N)C3)sc2n1 (single isomer, unassigned) [Example 14-1] was run?
**A.** 0.05 to 0.2 µM

**Q.** How did the IC50 turn out when Cc1ccc2c(N)c(C(=O)N[C@H]3CCc4c(ccc(N5CC6CCC(C5)N6)c4C#N)C3)sc2n1 (single isomer, unassigned) [Example 14-2] was run?
**A.** > 2 µM

**Q.** Which IC50 does the source give for Cc1ccc2c(N)c(C(=O)N[C@@H]3CCc4cc(N5CC6CCC(C5)N6)c(C#N)cc4C3)sc2n1 (single isomer, unassigned) [Example 14-3] here?
**A.** > 2 µM

**Q.** With Cc1ccc2c(N)c(C(=O)N[C@H]3CCc4cc(N5CC6CCC(C5)N6)c(C#N)cc4C3)sc2n1 (single isomer, unassigned) [Example 14-4] as the compound, how does the IC50 read?
**A.** 0.05 to 0.2 µM

**Q.** Cc1cnc2c(N)c(C(=O)N[C@@H]3CCc4c(ccc(N5CC6CCC(C5)N6)c4C#N)C3)sc2n1 (single isomer, unassigned) [Example 14-5] was tested. Which IC50 did it give?
**A.** 0.05 to 0.2 µM

**Q.** For Cc1cnc2c(N)c(C(=O)N[C@H]3CCc4c(ccc(N5CC6CCC(C5)N6)c4C#N)C3)sc2n1 (single isomer, unassigned) [Example 14-6], which IC50 is on record?
**A.** > 2 µM

**Q.** Which IC50 does the source give for Cc1cnc2c(N)c(C(=O)N[C@@H]3CCc4cc(N5CC6CCC(C5)N6)c(C#N)cc4C3)sc2n1 (single isomer, unassigned) [Example 14-7] here?
**A.** > 2 µM

**Q.** For Cc1cnc2c(N)c(C(=O)N[C@H]3CCc4cc(N5CC6CCC(C5)N6)c(C#N)cc4C3)sc2n1 (single isomer, unassigned) [Example 14-8], which IC50 is on record?
**A.** 0.05 to 0.2 µM
